Results as given in patent US20230398130A1, “METHODS AND COMPOSITIONS FOR DIFFERENTIATING STEM CELLS” (Massachusetts Institute of Technology, priority 2020, published 2023).
Where a name gives a salt, the structure may show the parent alone.

How the values were obtained:
ISC-enriched organoids [1] = assay: Primary screen, 384-well 2.5-D organoid differentiation (ENR+CD, 6 days): basal lysozyme secretion (LYZ.NS); format: cell-based, murine; conditions: for SSMD.LYZ.NS / Dose.FC.LYZ.NS / Z.LYZ.NS: primary screen; for Dose.FC.LYZ.NS: FC vs plate median
Text: High-throughput screening.

ISC-enriched organoids [2] = assay: Primary screen, 384-well 2.5-D organoid differentiation (ENR+CD, 6 days, Target Selective Inhibitor Library, vs whole-plate median): ATP (CellTiter-Glo 3D, CTG); conditions: for SSMD.CTG: strictly standardized mean difference; for Dose.FC.CTG: FC vs plate median
[3] = strictly standardized mean difference, 1st of the 4 dose lines of the treatment (dose not given)
[4] = strictly standardized mean difference, 2nd of the 4 dose lines of the treatment (dose not given)
[5] = strictly standardized mean difference, 3rd of the 4 dose lines of the treatment (dose not given)
[6] = strictly standardized mean difference, 4th of the 4 dose lines of the treatment (dose not given)
[7] = Dose 0.08 uM, primary screen, standard z score
[8] = Dose 0.40 uM, primary screen, standard z score
[9] = Dose 2.00 uM, primary screen, standard z score
[10] = Dose 10.00 uM, primary screen, standard z score
[11] = primary screen, 1st of the 4 dose lines of the treatment (dose not given)
[12] = primary screen, 2nd of the 4 dose lines of the treatment (dose not given)
[13] = primary screen, 3rd of the 4 dose lines of the treatment (dose not given)
[14] = primary screen, 4th of the 4 dose lines of the treatment (dose not given)
[15] = Dose 0.40 uM, standard z score of FC
[16] = Dose 2.00 uM, standard z score of FC
[17] = Dose 10.00 uM, standard z score of FC
[18] = primary screen, dose 0.08 uM, standard z score of FC
[19] = primary screen, dose 0.40 uM, standard z score of FC
[20] = primary screen, dose 2.00 uM, standard z score of FC
[21] = primary screen, dose 10.00 uM, standard z score of FC
[22] = Dose 0.08 uM, standard z score of FC

CC1=C(/C=C/C(C)=C/C=C/C(C)=C\C(=O)O)C(C)(C)CCC1 [Isotretinoin]
SSMD.LYZ.NS (ISC-enriched organoids [1]; [3]): 0.753 | SSMD.LYZ.NS (ISC-enriched organoids [1]; [4]): 0.312 | SSMD.LYZ.NS (ISC-enriched organoids [1]; [5]): 0.410 | SSMD.LYZ.NS (ISC-enriched organoids [1]; [6]): 0.680 | Z.CTG (ISC-enriched organoids [2]; [7]): 0.982 | Z.CTG (ISC-enriched organoids [2]; [8]): 0.965 | Z.CTG (ISC-enriched organoids [2]; [9]): 0.604 | Z.CTG (ISC-enriched organoids [2]; [10]): 0.331 | SSMD.CTG (ISC-enriched organoids [2]; [11]): 1.156 | SSMD.CTG (ISC-enriched organoids [2]; [12]): 0.966 | SSMD.CTG (ISC-enriched organoids [2]; [13]): 0.779 | SSMD.CTG (ISC-enriched organoids [2]; [14]): 0.304

VU 0357121
Z.LYZ.NS (standard z score) (ISC-enriched organoids [1]; dose 0.08 uM): 0.686 | Z.LYZ.NS (standard z score) (ISC-enriched organoids [1]; dose 0.40 uM): −0.090 | Z.LYZ.NS (standard z score) (ISC-enriched organoids [1]; dose 2.00 uM): 0.261 | Z.CTG (standard z score) (ISC-enriched organoids [2]; dose 0.08 uM): 0.438 | Z.CTG (standard z score) (ISC-enriched organoids [2]; dose 0.40 uM): 0.352 | Z.CTG (standard z score) (ISC-enriched organoids [2]; dose 2.00 uM): 0.029 | Z.CTG (standard z score) (ISC-enriched organoids [2]; dose 10.00 uM): −0.141

C=CC(=O)N1CCC[C@@H](n2nc(-c3ccc(Oc4ccccc4)cc3)c3c(N)ncnc32)C1 [Ibrutinib (PCI-32765)]
Dose.FC.LYZ.NS (ISC-enriched organoids [1]; Dose 0.08 uM): −0.071 log 2 fold change | Z.LYZ.NS (ISC-enriched organoids [1]; Dose 0.08 uM, standard z score): −0.619 | Dose.FC.LYZ.NS (ISC-enriched organoids [1]; Dose 0.40 uM): −0.141 log 2 fold change | Z.LYZ.NS (ISC-enriched organoids [1]; Dose 0.40 uM, standard z score): −1.225 | Dose.FC.LYZ.NS (ISC-enriched organoids [1]; Dose 2.00 uM): −0.202 log 2 fold change | Z.LYZ.NS (ISC-enriched organoids [1]; Dose 2.00 uM, standard z score): −1.763 | Dose.FC.LYZ.NS (ISC-enriched organoids [1]; Dose 10.00 uM): −0.199 log 2 fold change | Z.LYZ.NS (ISC-enriched organoids [1]; Dose 10.00 uM, standard z score): −1.737 | SSMD.LYZ.NS (ISC-enriched organoids [1]; [3]): −0.704 | SSMD.LYZ.NS (ISC-enriched organoids [1]; [4]): −1.031 | SSMD.LYZ.NS (ISC-enriched organoids [1]; [5]): −1.175 | SSMD.LYZ.NS (ISC-enriched organoids [1]; [6]): −1.325 | Dose.FC.CTG (ISC-enriched organoids [2]; Dose 0.08 uM, primary screen): −0.027 log 2 fold change | Z.CTG (ISC-enriched organoids [2]; [7]): −0.065 | Dose.FC.CTG (ISC-enriched organoids [2]; Dose 0.40 uM, primary screen): −0.466 log 2 fold change | Z.CTG (ISC-enriched organoids [2]; [8]): −1.112 | Dose.FC.CTG (ISC-enriched organoids [2]; Dose 2.00 uM, primary screen): −0.521 log 2 fold change | Z.CTG (ISC-enriched organoids [2]; [9]): −1.244 | Dose.FC.CTG (ISC-enriched organoids [2]; Dose 10.00 uM, primary screen): −0.931 log 2 fold change | Z.CTG (ISC-enriched organoids [2]; [10]): −2.224 | SSMD.CTG (ISC-enriched organoids [2]; [11]): −0.062 | SSMD.CTG (ISC-enriched organoids [2]; [12]): −0.574 | SSMD.CTG (ISC-enriched organoids [2]; [13]): −1.005 | SSMD.CTG (ISC-enriched organoids [2]; [14]): −0.875

CCOc1nc2cccc(C(=O)O)c2n1Cc1ccc(-c2ccccc2-c2nnn[nH]2)cc1 [Candesartan]
SSMD.LYZ.NS (ISC-enriched organoids [1]; strictly standardized mean difference of replicates, four lines per treatment = four doses (dose not given), column head inferred): −0.474 | Z.CTG (ISC-enriched organoids [2]; [15]): −0.299 | Z.CTG (ISC-enriched organoids [2]; [16]): −0.473 | Z.CTG (ISC-enriched organoids [2]; [17]): −0.604

CCN(CC)C(=O)c1ccc(C2=CC3(CCNCC3)Oc3cccc(O)c32)cc1 [ADL5859 HCl]
Z.LYZ.NS (ISC-enriched organoids [1]; dose 0.40 uM, standard z score of FC): 0.163 | Z.CTG (ISC-enriched organoids [2]; [18]): 0.645 | Z.CTG (ISC-enriched organoids [2]; [19]): 0.389 | Z.CTG (ISC-enriched organoids [2]; [20]): 0.695 | Z.CTG (ISC-enriched organoids [2]; [21]): 0.465

COc1ccc2c(c1)C(=O)N(CCc1ccc(S(=O)(=O)NC(=O)NC3CCCCC3)cc1)C(=O)C2(C)C [Gliquidone]
Z.CTG (ISC-enriched organoids [2]; [22]): 0.297 | Z.CTG (ISC-enriched organoids [2]; [8]): 0.247 | Z.CTG (ISC-enriched organoids [2]; [9]): 0.588 | Z.CTG (ISC-enriched organoids [2]; [10]): 0.320

Cc1cc(C(C)(C)C)c(O)c(C)c1CC1=NCCN1 [Oxymetazoline HCl]
Z.CTG (ISC-enriched organoids [2]; [22]): 0.340 | Z.CTG (ISC-enriched organoids [2]; [15]): 0.281 | Z.CTG (ISC-enriched organoids [2]; [16]): −0.016 | Z.CTG (ISC-enriched organoids [2]; [17]): 0.282

COc1ccc(C(=O)N2CCCC2=O)cc1 [Aniracetam]
Z.CTG (ISC-enriched organoids [2]; [18]): −0.211 | Z.CTG (ISC-enriched organoids [2]; [19]): 0.267 | Z.CTG (ISC-enriched organoids [2]; [20]): 0.130 | Z.CTG (ISC-enriched organoids [2]; [21]): 0.045

Oc1cc(O)cc(/C=C/c2ccc(O)c(O)c2)c1 [Piceatannol]
Z.CTG (ISC-enriched organoids [2]; [22]): 0.554 | Z.CTG (ISC-enriched organoids [2]; [15]): −0.216 | Z.CTG (ISC-enriched organoids [2]; [16]): 0.177 | Z.CTG (ISC-enriched organoids [2]; [17]): −0.170

O=C(O)/C=C/c1ccc(Cn2ccnc2)cc1 [Ozagrel HCl]
Z.CTG (ISC-enriched organoids [2]; [22]): 0.118 | Z.CTG (ISC-enriched organoids [2]; [15]): 0.318 | Z.CTG (ISC-enriched organoids [2]; [16]): 0.437 | Z.CTG (ISC-enriched organoids [2]; [17]): 0.547

O=C(NC[C@H]1CN(c2ccc(N3CCOCC3=O)cc2)C(=O)O1)c1ccc(Cl)s1 [Rivaroxaban]
Z.CTG (standard z score) (ISC-enriched organoids [2]; Dose 0.08 uM, primary screen): 0.050 | Z.CTG (standard z score) (ISC-enriched organoids [2]; Dose 0.40 uM, primary screen): 0.466 | Z.CTG (standard z score) (ISC-enriched organoids [2]; Dose 2.00 uM, primary screen): 0.123 | Z.CTG (standard z score) (ISC-enriched organoids [2]; Dose 10.00 uM, primary screen): 0.104

COc1ccc2nc([S@@+]([O-])Cc3ncc(C)c(OC)c3C)[nH]c2c1 [Esomeprazole Sodium]
Z.CTG (ISC-enriched organoids [2]; [22]): 0.689 | Z.CTG (ISC-enriched organoids [2]; [15]): 0.475 | Z.CTG (ISC-enriched organoids [2]; [16]): 0.923 | Z.CTG (ISC-enriched organoids [2]; [17]): 0.648

CN[C@H]1CC[C@@H](c2ccc(Cl)c(Cl)c2)c2ccccc21 [Sertraline HCl]
Z.CTG (standard z score) (ISC-enriched organoids [2]; Dose 0.08 uM, primary screen): −0.189 | Z.CTG (standard z score) (ISC-enriched organoids [2]; Dose 0.40 uM, primary screen): 0.208 | Z.CTG (standard z score) (ISC-enriched organoids [2]; Dose 2.00 uM, primary screen): 0.157 | Z.CTG (standard z score) (ISC-enriched organoids [2]; Dose 10.00 uM, primary screen): 0.104

N#CC1(c2ccc(NC(=O)c3cccnc3NCc3ccncc3)cc2)CCCC1 [Apatinib]
Z.CTG (ISC-enriched organoids [2]; [18]): 0.532 | Z.CTG (ISC-enriched organoids [2]; [19]): 0.722 | Z.CTG (ISC-enriched organoids [2]; [20]): 0.645 | Z.CTG (ISC-enriched organoids [2]; [21]): 0.520

COc1ccc(-c2nc3ccc(C4=NNC(=O)CC4C)cc3[nH]2)cc1 (stereo not drawn) [Pimobendan]
Z.CTG (ISC-enriched organoids [2]; [22]): −0.053 | Z.CTG (ISC-enriched organoids [2]; [15]): 0.460 | Z.CTG (ISC-enriched organoids [2]; [16]): 0.492 | Z.CTG (ISC-enriched organoids [2]; [17]): 0.333

CC(C)N(CCCNC(=O)Nc1ccc(C(C)(C)C)cc1)C[C@H]1O[C@@H](n2cc(Br)c3c(N)ncnc32)[C@H](O)[C@@H]1O [SGC0946]
Z.CTG (standard z score) (ISC-enriched organoids [2]; Dose 0.08 uM, primary screen): 0.124 | Z.CTG (standard z score) (ISC-enriched organoids [2]; Dose 0.40 uM, primary screen): −0.290 | Z.CTG (standard z score) (ISC-enriched organoids [2]; Dose 2.00 uM, primary screen): −0.197 | Z.CTG (standard z score) (ISC-enriched organoids [2]; Dose 10.00 uM, primary screen): −0.340
